In EP0005299A1, “Substituted 1-phenyl-2,3,4,5-tetrahydro-1H-3-benzazepines, process for the preparation thereof, and pharmaceutical compositions containing them” (priority 1978, dated 1979):
Where a name gives a salt, the structure may show the parent alone.

Tests used:
[1] = system: muricidal behavior; experiment: Anti-muricide assay; format: in vivo, Male Long Evans rats; settings: Rattus norvegicus, ip; rats, intraperitoneal injection, mouse presented at 30 and 60 minutes; dosage at which 50% of the tested rats do not kill mice
Protocol: Anti-muricide assay: Male Long Evans rats weighing 225-250 g are housed I rat per cage, and killers (rats show an instinctive mouse killing behavior (muricide)) are selected initially after being deprived of food for approximately 66 hours. This is the only time the rats are deprived of food. Food, ad libitum, is-avaiable on the cage floor since food bins are not practical because they afford a hiding place for mice. The rats are tested for muricidal behavior the following day and once a week thereafter; non-killers are always eliminated. A non-killer is a rat which fails to kill a mouse placed into his cage within 5 minutes. Drugs are tested in the afternoon of the day following this weekly check for persistance of the killing behavior. Since the rats are not deprived of food or water and rarely attempt to eat the mouse, this behavior is not motivated by hunger. Four weeks after the first test for killing, the rats are injected, i.p., with placebo and then tested 30/60 minutes after the injection. […] Only rats that consistantly kill mice placed in their home cages are used for drug testing. Every treatment-group is comprised of 5 rats. […] Blockade of muricidal behavior is determined by observing the number of surviving mice 5 minutes after being introduced into the rat cages.

[2] = system: methamphetamine; experiment: Methamphetamine reversal assay; format: in vivo, mice
[3] = Acute oral toxicity (LD50); settings: mouse, in vivo; oral dose in mice

Structure (SMILES)	ED50 [1]	ED50 ([2]; Mus musculus, po, 4 h)	LD50 [3]	protection from methamphetamine lethality ([2]; control, perphenazine at 1 mg/kg, aggregated mice, methamphetamine 15 mg/kg i.p.)
CN1CCc2cc(Cl)c(OC(=O)N(C)C)cc2[C@H](c2ccccc2)C1 [(S)-7-chloro-8-dimethylaminocarbonyloxy-3-methyl-1-phenyl-2,3,4,5-tetrahydro-lH-3-benzazepine hydrochloride]	5.7 mg/kg	1.2 mg/kg	> 300 mg/kg	–
OCCN1CCN(CCCN2c3ccccc3Sc3ccc(Cl)cc32)CC1 [perphenazine, reference compound]	–	–	–	complete protection
